Assay results from paper PMC8786148, “The effects of magainin 2-derived and rationally designed antimicrobial peptides on Mycoplasma pneumoniae” (PLoS ONE, 2022).
Marks after values point to notes of the source that are not given here.

What was measured:
[1] = test system: Mycoplasma pneumoniae M129-B7; assay: Colorimetric and biofilm assays, strain M129-B7; type: cell-based
[2] = test system: Mycoplasma pneumoniae FH; assay: Killing assay, strain FH; details: for CFU/mL after treatment, killing assay: 3 d at 37°C
[3] = test system: Mycoplasma pneumoniae Bru; assay: Killing assay, strain Bru; details: 3 days; for Titre (CFU/mL), killing assay: initial 10^6 CFU/mL, triplicate, mean
[4] = test system: Mycoplasma pneumoniae Mac; assay: Killing assay, strain Mac; details: 3 days; for Titre (CFU/mL), killing assay: initial 10^6 CFU/mL, triplicate, mean
[5] = test system: Mycoplasma pneumoniae M52; assay: Killing assay, strain M52; details: 3 days; for Titre (CFU/mL), killing assay: initial 10^6 CFU/mL, triplicate, mean
[6] = test system: Mycoplasma pneumoniae M129-B7; assay: Killing assay, strain M129-B7; details: 3 days; for Titre (CFU/mL), killing assay: initial 10^6 CFU/mL, triplicate, mean
[7] = test system: Mycoplasma pneumoniae Bru; assay: Colorimetric and biofilm assays, strain Bru
[8] = test system: Mycoplasma pneumoniae Mac; assay: Colorimetric and biofilm assays, strain Mac
[9] = test system: Mycoplasma pneumoniae M52; assay: Colorimetric and biofilm assays, strain M52
[10] = test system: Mycoplasma pneumoniae FH; assay: Colorimetric assay (absorbance at 560 nm), strain FH; details: initial 10^5 CFU/mL, 0% CO2, 6-8 days at 37°C, absorbance 560 nm
[11] = test system: Mycoplasma pneumoniae FH; assay: Biofilm assay (crystal violet, absorbance at 550 nm), strain FH; details: initial 10^5 CFU/mL, 0% CO2, 6-8 days at 37°C
[12] = test system: M. pneumoniae strains FH, M52, Mac, Bru, and M129-B7; assay: Propidium iodide (PI) uptake assay, membrane disruption; type: cell-based, Mycoplasma pneumoniae; details: five strains; 10 μmol/L AMP; PI 5 μg/mL in PBS; read every 2 min up to 20 min; triplicate
Method: We performed the PI uptake assays based on the previously described method with modification for M. pneumoniae. M. pneumoniae strains FH, M52, Mac, Bru, and M129-B7 were cultured as described above. Briefly, the 90 mL culture was done in PPLO-based medium for 6 days to observe the medium color change from red to yellow. The mycoplasma in the culture medium was centrifuged at 11,740g for 30 min at 4°C, and the precipitation was suspended in 20 mL phosphate buffered saline (PBS) by passing through a 60 mm-length 25-gauge needle (Top Corporation, Tokyo, Japan) three times. The suspension was centrifuged again at 11,740g for 30 min at 4°C, and 2.25 mL PBS was added to the precipitation. The 2× mycoplasma suspension was prepared by passing through a 60 mm-length 25-gauge needle five times. When using heat-killed M. pneumoniae (HKMp), the 2× suspension was heated at 95°C for 10 min. The 2× PI assay reaction mix based on PBS containing 20 μmol/L of an antimicrobial peptide or saline, and 10 μg/mL PI (Dojindo, Tokyo, Japan). Each assay was performed with a 96-well black flat-bottomed plate (PerkinElmer, Waltham, MA, USA) using a final cell volume of 100 μL prepared by mixing 2× mycoplasma suspension and 2× PI assay reaction mix at 1:1 in volume ratio. The intercalation fluorescence of PI was measured by using an Infinite 200 Pro F Plex microplate reader (Tecan, Zürich, Switzerland) every 2 min, with an excitation filter at 535 nm (half width: 25 nm) and an emission filter at 620 nm (half width: 20 nm). The averages and standard deviations of the fluorescent intensities was calculated, and normalised by an average fluorescence between 10 and 20 min of HKMp as 100% relative fluorescence, and by a minimum average fluorescence between 0 and 20 min of whole data as 0% relative fluorescence.

[13] = test system: Staphylococcus aureus; design: method as in PMID 28789896, PMID 31303986, PMID 33369262; details: previously reported; cited from earlier work
[14] = test system: Staphylococcus epidermidis; design: method as in PMID 28789896, PMID 31303986, PMID 33369262; details: previously reported; cited from earlier work
[15] = test system: Escherichia coli; design: method as in PMID 28789896, PMID 31303986, PMID 33369262; details: previously reported; cited from earlier work
[16] = test system: Pseudomonas aeruginosa; design: method as in PMID 28789896, PMID 31303986, PMID 33369262; details: previously reported; cited from earlier work
[17] = test system: four strains of M. pneumoniae; assay: Biofilm assay, four strains taken together; details: four strains (Bru, M129-B7, Mac, M52); inferred from enhanced biofilm production below 30 μmol/L
[18] = colorimetric and biofilm assays
[19] = up to 30 μmol/L, Shirley-Williams test

With C[C@@H]1CN(c2c(F)c(N)c3c(=O)c(C(=O)O)cn(C4CC4)c3c2F)C[C@H](C)N1 [Sparfloxacin] the “Concentration that completely attenuated the growth” value ([1]; strain M129-B7, colorimetric and biofilm assays) was 0.25 µg/mL, the “Change in CFU, killing assay with 1 h incubation” value ([2]; 1 h treatment, SPFX 0.0625-0.25 μg/mL, AMPs 30 μmol/L, S3 Fig) was “no change in the CFU values” and the “Concentration with significant difference in CFU, killing assay” value ([2]; initial 10^6 CFU/mL, 3 d incubation, p < 0.005) was “above 0.0625 μg/mL”. The “CFU/mL after treatment, killing assay” value ([2]; sparfloxacin 0.0156 μg/mL, initial 10^6 CFU/mL, triplicate, mean) was 6.57×10^6 CFU/mL, the “CFU/mL after treatment, killing assay” value ([2]; sparfloxacin 0.0313 μg/mL, initial 10^6 CFU/mL, triplicate, mean) was 2.33×10^6 CFU/mL and the “CFU/mL after treatment, killing assay” value ([2]; sparfloxacin 0.0625 μg/mL, initial 10^6 CFU/mL, triplicate, mean) was 1.39×10^5 ^a CFU/mL. For the same compound, the “CFU/mL after treatment, killing assay” value ([2]; sparfloxacin 0.125 μg/mL, initial 10^6 CFU/mL, triplicate, mean) was 1.30×10^4 ^a CFU/mL, the “CFU/mL after treatment, killing assay” value ([2]; sparfloxacin 0.25 μg/mL, initial 10^6 CFU/mL, triplicate, mean) was 5.50×10^3 ^a CFU/mL and the “Concentration with statistically significant result, killing assay” value ([3]; p < 0.005) was 0.0625 µg/mL. The “Titre (CFU/mL), killing assay” value ([3]; sparfloxacin 0.0156 μg/mL) was 2.52×10^6 CFU/mL, the “Titre (CFU/mL), killing assay” value ([3]; sparfloxacin 0.0313 μg/mL) was 1.80×10^6 CFU/mL and the “Titre (CFU/mL), killing assay” value ([3]; sparfloxacin 0.0625 μg/mL) was 8.41×10^5 ^a CFU/mL. For the same compound, the “Titre (CFU/mL), killing assay” value ([3]; sparfloxacin 0.125 μg/mL) was 1.52×10^5 ^a CFU/mL, the “Titre (CFU/mL), killing assay” value ([3]; sparfloxacin 0.25 μg/mL) was 1.81×10^4 ^a CFU/mL and the “Concentration with statistically significant result, killing assay” value ([4]; p < 0.005) was 0.0625 µg/mL. The “Titre (CFU/mL), killing assay” value ([4]; sparfloxacin 0.0156 μg/mL) was 2.66×10^6 CFU/mL, the “Titre (CFU/mL), killing assay” value ([4]; sparfloxacin 0.0313 μg/mL) was 1.86×10^6 CFU/mL and the “Titre (CFU/mL), killing assay” value ([4]; sparfloxacin 0.0625 μg/mL) was 3.88×10^5 ^a CFU/mL. The “Titre (CFU/mL), killing assay” value ([4]; sparfloxacin 0.125 μg/mL) was 2.17×10^4 ^a CFU/mL, the “Titre (CFU/mL), killing assay” value ([4]; sparfloxacin 0.25 μg/mL) was 2.90×10^3 ^a CFU/mL and the “Concentration with statistically significant result, killing assay” value ([5]; p < 0.005) was 0.0625 µg/mL. The “Titre (CFU/mL), killing assay” value ([5]; sparfloxacin 0.0156 μg/mL) was 2.95×10^6 CFU/mL, the “Titre (CFU/mL), killing assay” value ([5]; sparfloxacin 0.0313 μg/mL) was 2.02×10^6 CFU/mL and the “Titre (CFU/mL), killing assay” value ([5]; sparfloxacin 0.0625 μg/mL) was 8.00×10^5 ^a CFU/mL. The “Titre (CFU/mL), killing assay” value ([5]; sparfloxacin 0.125 μg/mL) was 1.99×10^5 ^a CFU/mL, the “Titre (CFU/mL), killing assay” value ([5]; sparfloxacin 0.25 μg/mL) was 3.24×10^4 ^a CFU/mL and the “Concentration with statistically significant result, killing assay” value ([6]; p < 0.005) was 0.0625 µg/mL. For the same compound, the “Titre (CFU/mL), killing assay” value ([6]; sparfloxacin 0.0156 μg/mL) was 3.57×10^6 CFU/mL, the “Titre (CFU/mL), killing assay” value ([6]; sparfloxacin 0.0313 μg/mL) was 2.26×10^6 CFU/mL and the “Titre (CFU/mL), killing assay” value ([6]; sparfloxacin 0.0625 μg/mL) was 8.73×10^5 ^a CFU/mL. For the same compound, the “Titre (CFU/mL), killing assay” value ([6]; sparfloxacin 0.125 μg/mL) was 1.31×10^5 ^a CFU/mL, the “Titre (CFU/mL), killing assay” value ([6]; sparfloxacin 0.25 μg/mL) was 1.12×10^4 ^a CFU/mL and the “Concentration that completely attenuated the growth” value [7, 18] was 0.25 µg/mL. The “Concentration that completely attenuated the growth” value [8, 18] was 0.25 µg/mL, the “Concentration that completely attenuated the growth” value [9, 18] was 0.25 µg/mL and the “Concentration giving complete repression of the growth, colorimetric assay” value [10] was “higher than 0.0625 μg/mL”. For the same compound, the “Concentration giving complete repression of the growth, biofilm assay” value ([11]; crystal violet, absorbance 550 nm) was > 0.25 µg/mL.

In the case of H-KKKKKKKKKGGGLLALLALLA-NH2 [Block], the “Biofilm formation at 16 μmol/L” value ([1]; strain M129-B7, biofilm assay, 16 μmol/L) is reported as “enhancement of biofilm formation”, the “Effect in the biofilm assay” value ([1]; strain M129-B7, up to 30 μmol/L, Shirley-Williams test) is reported as “no statistically significant effect” and the “Biofilm amount at 30 μmol/L” value ([1]; strain printed B129-B7, biofilm assay, 30 μmol/L) is reported as “no effect”. For the same compound, the “PI fluorescence compared with live Mp without peptide” value [12] was “highest fluorescence”, the “MIC, Gram-positive, S. a.” value [13] was 12.5 µM and the “MIC, Gram-positive, S. e” value [14] was 6.25 µM. For the same compound, the “MIC, Gram-negative, E. c.” value [15] was 6.25 µM, the “MIC, Gram-negative, P. a.” value [16] was 6.25 µM and the “Killing assay result compared with saline” value ([2]; 30 μmol/L AMP, 3 days, Welch's t test, p < 0.005) was “significant difference”. For the same compound, the “Cell numbers (CFU/mL) after treatment with antimicrobial peptides, killing assay” value ([2]; 30 μmol/L AMP, 3 days, initial 10^6 CFU/mL, triplicate, mean, saline 3.59×10^6) was 5.91×10^5 CFU/mL, the “Titre (CFU/mL), killing assay” value ([3]; AMP 30 μmol/L, saline 3.48×10^6) was 2.32×10^5 ^b CFU/mL and the “Titre (CFU/mL), killing assay” value ([4]; AMP 30 μmol/L, saline 4.19×10^6) was 4.30×10^5 ^b CFU/mL. The “Titre (CFU/mL), killing assay” value ([5]; AMP 30 μmol/L, saline 3.62×10^6) was 3.89×10^5 ^b CFU/mL, the “Titre (CFU/mL), killing assay” value ([6]; AMP 30 μmol/L, saline 3.79×10^6) was 4.84×10^5 ^b CFU/mL and the “Concentration of anti-Mp effect indicated by the biofilm assay” value [17] was > 30 µmol/L. For the same compound, the “Biofilm formation at 16 μmol/L” value ([7]; biofilm assay, 16 μmol/L) was “enhancement of biofilm formation”, the “Biofilm amount at 30 μmol/L” value ([7]; biofilm assay, 30 μmol/L) was “slight drop in the biofilm amount” and the “Effect in the biofilm assay” value [7, 19] was “no statistically significant effect”. The “Biofilm formation at 16 μmol/L” value ([8]; biofilm assay, 16 μmol/L) was “enhancement of biofilm formation”, the “Biofilm amount at 30 μmol/L” value ([8]; biofilm assay, 30 μmol/L) was “slight drop in the biofilm amount” and the “Effect in the biofilm assay” value [8, 19] was “no statistically significant effect”. The “Biofilm formation at 16 μmol/L” value ([9]; biofilm assay, 16 μmol/L) was “enhancement of biofilm formation”, the “Biofilm amount at 30 μmol/L” value ([9]; biofilm assay, 30 μmol/L) was “no effect” and the “Effect in the biofilm assay” value [9, 19] was “no statistically significant effect”. For the same compound, the “Concentration with statistically significant effect in the biofilm assay” value ([11]; p < 0.005, Shirley-Williams test) was 30 µmol/L.
